Reference: patent US8637484B2, “Modulation of growth hormone receptor expression and insulin-like growth factor expression” (Antisense Therapeutic Limited, priority 2003, dated 2014)
In the oligonucleotide strings, read from the 5' end, every base follows the letter of its sugar. An asterisk marks phosphorothioate; unmarked linkages are phosphodiester. Other units and linkages are bracketed, terminal groups are in braces. A string of capitals states the bases alone. e = 2'-O-(2-methoxyethyl) (MOE); [5mC] = 5-methylcytosine; d = 2'-deoxy (DNA)

System: mouse growth hormone receptor mRNA
Assay: Inhibition of mouse growth hormone receptor mRNA levels in b.END cells, quantitative real-time PCR
Type: cell-based
Parameters: % INHIB: concentration or dose not given beside the values
Details: mouse growth hormone receptor mRNA, b.END cells, averages from three experiments
Method: The mouse brain endothelial cell line b.END was obtained from Dr. Werner Risau at the Max Plank Instititute (Bad Nauheim, Germany). b.END cells were routinely cultured in DMEM, high glucose (Gibco/Life Technologies, Gaithersburg, Md.) supplemented with 10% fetal calf serum (Gibco/Life Technologies, Gaithersburg, Md.). Cells were routinely passaged by trypsinization and dilution when they reached 90% confluence. Cells were seeded into 96-well plates (Falcon-Primaria #3872) at a density of 3000 cells/well for use in RT-PCR analysis.
When cells reached 65-75% confluency, they were treated with oligonucleotide. For cells grown in 96-well plates, wells were washed once with 100 μL OPTI-MEM™-1 reduced-serum medium (Invitrogen Corporation, Carlsbad, Calif.) and then treated with 130 μL of OPTI-MEM™-1 containing 3.75 μg/mL LIPOFECTIN™ (Invitrogen Corporation, Carlsbad, Calif.) and the desired concentration of oligonucleotide. Cells are treated and data are obtained in triplicate. After 4-7 hours of treatment at 37° C., the medium was replaced with fresh medium. Cells were harvested 16-24 hours after oligonucleotide treatment.
Total RNA was isolated using an RNEASY 96™ kit and buffers purchased from Qiagen Inc. (Valencia, Calif.) following the manufacturer's recommended procedures. Briefly, for cells grown on 96-well plates, growth medium was removed from the cells and each well was washed with 200 μL cold PBS. 150 μL Buffer RLT was added to each well and the plate vigorously agitated for 20 seconds. 150 μL of 70% ethanol was then added to each well and the contents mixed by pipetting three times up and down. The samples were then transferred to the RNEASY 96™ well plate attached to a QIAVAC™ manifold fitted with a waste collection tray and attached to a vacuum source. Vacuum was applied for 1 minute. 500 μL of Buffer RW1 was added to each well of the RNEASY 96™ plate and incubated for 15 minutes and the vacuum was again applied for 1 minute. An additional 500 μL of Buffer RW1 was added to each well of the RNEASY 96™ plate and the vacuum was applied for 2 minutes. 1 mL of Buffer RPE was then added to each well of the RNEASY 96™ plate and the vacuum applied for a period of 90 seconds. The Buffer RPE wash was then repeated and the vacuum was applied for an additional 3 minutes. The plate was then removed from the QIAVAC™ manifold and blotted dry on paper towels. The plate was then re-attached to the QIAVAC™ manifold fitted with a collection tube rack containing 1.2 mL collection tubes. RNA was then eluted by pipetting 140 μL of RNAse free water into each well, incubating 1 minute, and then applying the vacuum for 3 minutes.
Quantitation of growth hormone receptor mRNA levels was accomplished by real-time quantitative PCR using the ABI PRISM™ 7600, 7700, or 7900 Sequence Detection System (PE-Applied Biosystems, Foster City, Calif.) according to manufacturer's instructions. This is a closed-tube, non-gel-based, fluorescence detection system which allows high-throughput quantitation of polymerase chain reaction (PCR) products in real-time. As opposed to standard PCR in which amplification products are quantitated after the PCR is completed, products in real-time quantitative PCR are quantitated as they accumulate. This is accomplished by including in the PCR reaction an oligonucleotide probe that anneals specifically between the forward and reverse PCR primers, and contains two fluorescent dyes. A reporter dye (e.g., FAM or JOE, obtained from either PE-Applied Biosystems, Foster City, Calif., Operon Technologies Inc., Alameda, Calif. or Integrated DNA Technologies Inc., Coralville, Iowa) is attached to the 5′ end of the probe and a quencher dye (e.g., TAMRA, obtained from either PE-Applied Biosystems, Foster City, Calif., Operon Technologies Inc., Alameda, Calif. or Integrated DNA Technologies Inc., Coralville, Iowa) is attached to the 3′ end of the probe. […]

For “227443 (antisense eT*eG*e[5mC]*eT*eT*dG*dG*d[5mC]*dA*dG*d[5mC]*dT*d[5mC]*dG*dT*eG*eG*eG*eT*eT) [compound 227443]”, the “% INHIB” value was 0%.
For “227444 (antisense eA*eT*eG*eG*e[5mC]*dT*dG*d[5mC]*dG*d[5mC]*d[5mC]*dT*dG*d[5mC]*dT*eT*eG*eG*e[5mC]*eA) [compound 227444]”, the “% INHIB” value was 53%.
With “227445 (antisense eT*eA*e[5mC]*e[5mC]*eT*dG*dA*dG*dA*d[5mC]*d[5mC]*dT*d[5mC]*dG*dG*eA*eG*eT*eT*eT) [compound 227445]” the “% INHIB” value was 69%.
For “227446 (antisense eA*e[5mC]*eA*eA*eA*dG*dA*dT*d[5mC]*d[5mC]*dA*dT*dA*d[5mC]*d[5mC]*eT*eG*eA*eG*eA) [compound 227446]”, the “% INHIB” value was 87%.
For “227447 (antisense eG*e[5mC]*eT*eG*eG*dT*dG*dT*dA*dG*d[5mC]*d[5mC]*dT*d[5mC]*dA*e[5mC]*eT*eT*e[5mC]*e[5mC]) [compound 227447]”, the “% INHIB” value was 77%.
“227448 (antisense eT*eT*eT*eG*e[5mC]*d[5mC]*dA*dA*dG*dA*dG*dT*dA*dG*d[5mC]*eT*eG*eG*eT*eG) [compound 227448]” was tested, and the “% INHIB” value was 60%.
With “227449 (antisense eA*e[5mC]*eG*eA*e[5mC]*dA*d[5mC]*dT*dT*dG*dG*dT*dG*dA*dA*eT*e[5mC]*eG*eA*eG) [compound 227449]” the “% INHIB” value was 69%.
In the case of “227450 (antisense eT*eG*eG*e[5mC]*eT*dT*dT*d[5mC]*d[5mC]*d[5mC]*dT*dT*dT*dT*dA*eG*e[5mC]*eA*eT*eA) [compound 227450]”, the “% INHIB” value is reported as 71%.
“227451 (antisense eA*eT*eG*eA*eG*d[5mC]*dA*dA*dT*dT*d[5mC]*dT*dT*dG*d[5mC]*eA*eG*e[5mC]*eT*eT) [compound 227451]” was tested, and the “% INHIB” value was 49%.
With “227454 (antisense eA*eG*eT*eT*eG*dA*dA*dG*dT*dA*dA*d[5mC]*dA*dG*d[5mC]*eT*eG*eT*eT*eT) [compound 227454]” the “% INHIB” value was 69%.
In the case of “227455 (antisense eA*eG*eT*eA*eG*dG*dG*dT*dA*dT*d[5mC]*d[5mC]*dA*dA*dA*eT*eG*eG*eA*eG) [compound 227455]”, the “% INHIB” value is reported as 43%.
“227456 (antisense eG*eT*e[5mC]*e[5mC]*eA*dG*dT*dT*dG*dA*dG*dG*d[5mC]*d[5mC]*dA*eA*eT*eG*eG*eG) [compound 227456]” was tested, and the “% INHIB” value was 97%.
With “227457 (antisense eG*eA*eA*eT*eT*dA*dT*d[5mC]*d[5mC]*dA*dT*d[5mC]*d[5mC]*d[5mC]*dT*eT*e[5mC]*eA*eG*eA) [compound 227457]” the “% INHIB” value was 67%.
For “227458 (antisense eG*eT*eA*e[5mC]*eT*dG*dA*dA*dT*dT*dT*d[5mC]*dA*dT*dA*e[5mC]*eT*e[5mC]*e[5mC]*eA) [compound 227458]”, the “% INHIB” value was 75%.
In the case of “227459 (antisense e[5mC]*eT*eG*eA*eA*d[5mC]*dT*d[5mC]*dG*d[5mC]*dT*dG*dT*dA*d[5mC]*eT*eT*eT*eT*e[5mC]) [compound 227459]”, the “% INHIB” value is reported as 60%.
“227460 (antisense eA*eA*e[5mC]*eT*eG*dG*dA*dT*dA*dT*d[5mC]*dT*dT*d[5mC]*dT*eT*e[5mC]*eA*e[5mC]*eA) [compound 227460]” was tested, and the “% INHIB” value was 43%.
With “227461 (antisense eT*eG*e[5mC]*eT*eA*d[5mC]*dT*d[5mC]*d[5mC]*dA*dA*dA*dT*dA*dT*eT*e[5mC]*e[5mC]*eA*eA) [compound 227461]” the “% INHIB” value was 75%.
With “227462 (antisense eG*e[5mC]*eT*eT*eT*dG*dA*dA*dA*dA*dT*dA*dT*dA*dA*e[5mC]*eT*eA*e[5mC]*eA) [compound 227462]” the “% INHIB” value was 31%.
“227463 (antisense eA*eT*e[5mC]*eA*eG*d[5mC]*dA*dT*d[5mC]*dT*dT*dA*dA*dT*d[5mC]*e[5mC]*eT*eT*eT*eG) [compound 227463]” was tested, and the “% INHIB” value was 39%.
In the case of “227465 (antisense eT*eG*eA*eG*eA*dA*dG*dA*dT*d[5mC]*dT*dG*dG*dA*dT*e[5mC]*eA*eA*eT*e[5mC]) [compound 227465]”, the “% INHIB” value is reported as 51%.
“227466 (antisense eT*eT*eG*eT*eA*dG*dT*dT*dA*dT*d[5mC]*dA*dT*dG*dA*eA*eT*eG*e[5mC]*e[5mC]) [compound 227466]” was tested, and the “% INHIB” value was 50%.
In the case of “227467 (antisense e[5mC]*eA*eT*e[5mC]*eA*dT*dT*dG*dT*dA*dG*dA*dA*dG*dT*e[5mC]*eG*eG*eG*eT) [compound 227467]”, the “% INHIB” value is reported as 33%.
“227470 (antisense e[5mC]*eT*e[5mC]*e[5mC]*eA*dA*dG*dG*dA*dT*dA*d[5mC]*d[5mC]*dA*dG*e[5mC]*eT*eG*eA*eT) [compound 227470]” was tested, and the “% INHIB” value was 82%.
For “227471 (antisense eA*eG*eG*e[5mC]*eA*d[5mC]*dA*dA*dG*dA*dG*dA*dT*d[5mC]*dA*eG*e[5mC]*eT*eT*e[5mC]) [compound 227471]”, the “% INHIB” value was 52%.
“227472 (antisense eA*eG*eA*eG*e[5mC]*d[5mC]*dA*dA*dG*dG*dG*dA*dA*dG*d[5mC]*eA*eT*e[5mC]*eA*eT) [compound 227472]” was tested, and the “% INHIB” value was 42%.
With “227473 (antisense eA*eA*eG*eT*e[5mC]*dA*dA*dT*dG*dT*dT*dT*dG*d[5mC]*d[5mC]*eA*eG*eT*eG*eA) [compound 227473]” the “% INHIB” value was 71%.
For “227474 (antisense eT*eG*eT*e[5mC]*eG*d[5mC]*dT*dT*dA*d[5mC]*dT*dT*dG*dG*dG*e[5mC]*eA*eT*eA*eA) [compound 227474]”, the “% INHIB” value was 68%.
“227476 (antisense eG*eT*eA*eA*eT*dT*dT*dT*d[5mC]*dT*dT*dG*dG*d[5mC]*dA*eG*eG*eG*e[5mC]*eG) [compound 227476]” was tested, and the “% INHIB” value was 41%.
In the case of “227477 (antisense e[5mC]*eA*e[5mC]*eT*eG*dT*dT*d[5mC]*dA*dT*dG*d[5mC]*dT*dG*dT*eA*eA*eT*eT*eT) [compound 227477]”, the “% INHIB” value is reported as 61%.
In the case of “227478 (antisense eT*eT*eT*eT*eT*dG*dG*d[5mC]*dA*dT*d[5mC]*dT*dG*dA*d[5mC]*eT*e[5mC]*eA*e[5mC]*eA) [compound 227478]”, the “% INHIB” value is reported as 68%.
For “227479 (antisense eA*eT*eG*eT*e[5mC]*d[5mC]*dT*d[5mC]*dT*dT*dG*dG*dT*dT*dA*eA*eA*eG*e[5mC]*eT) [compound 227479]”, the “% INHIB” value was 59%.
“227485 (antisense e[5mC]*eG*eT*eG*eG*dT*dG*dT*dA*dG*dT*d[5mC]*dT*dG*dG*eG*eA*e[5mC]*eA*eG) [compound 227485]” was tested, and the “% INHIB” value was 45%.
For “227486 (antisense e[5mC]*eG*eG*eT*eG*dT*dG*dA*dA*d[5mC]*d[5mC]*dG*dT*dG*dG*eT*eG*eT*eA*eG) [compound 227486]”, the “% INHIB” value was 39%.
“227487 (antisense eT*e[5mC]*eA*eG*eG*d[5mC]*dA*dA*dA*dG*dG*d[5mC]*dA*dA*dA*eG*e[5mC]*eA*eG*eT) [compound 227487]” was tested, and the “% INHIB” value was 44%.
“227491 (antisense eT*eA*eG*eG*eA*dA*dA*dG*dG*d[5mC]*dT*dA*d[5mC]*dT*dG*e[5mC]*eA*eT*eG*eA) [compound 227491]” was tested, and the “% INHIB” value was 65%.
In the case of “227492 (antisense eT*eA*eA*eA*eA*d[5mC]*dA*dT*dA*dG*dT*dT*dT*dT*dG*eG*eT*eT*eT*eA) [compound 227492]”, the “% INHIB” value is reported as 7%.
“227493 (antisense eT*e[5mC]*e[5mC]*e[5mC]*eA*dA*d[5mC]*dA*d[5mC]*dA*dG*dA*dT*dT*dT*eA*eA*eA*eA*e[5mC]) [compound 227493]” was tested, and the “% INHIB” value was 51%.
With “227494 (antisense e[5mC]*eA*eA*eA*eA*dG*d[5mC]*d[5mC]*dA*d[5mC]*d[5mC]*dT*dG*dA*dT*eT*eG*eT*eT*eT) [compound 227494]” the “% INHIB” value was 56%.
With “227495 (antisense eT*e[5mC]*e[5mC]*eT*eG*dA*dA*d[5mC]*dT*dG*d[5mC]*dA*dA*dA*dA*eG*e[5mC]*e[5mC]*eA*e[5mC]) [compound 227495]” the “% INHIB” value was 47%.
